Here are results for 25 compounds from EP4667458A1 (Kanaph Therapeutics Inc., priority 2023, dated 2024).

What is called IC50 is the midpoint of a concentration-inhibition curve. A lower IC50 goes with greater potency.

A value given as a limit tells only on which side of the number the result lay.

This test concerns the target T1, KRAS^G12C::SOS1 (Homo sapiens, UniProt Q07889).
T1 sequence (Q07889 1-1333): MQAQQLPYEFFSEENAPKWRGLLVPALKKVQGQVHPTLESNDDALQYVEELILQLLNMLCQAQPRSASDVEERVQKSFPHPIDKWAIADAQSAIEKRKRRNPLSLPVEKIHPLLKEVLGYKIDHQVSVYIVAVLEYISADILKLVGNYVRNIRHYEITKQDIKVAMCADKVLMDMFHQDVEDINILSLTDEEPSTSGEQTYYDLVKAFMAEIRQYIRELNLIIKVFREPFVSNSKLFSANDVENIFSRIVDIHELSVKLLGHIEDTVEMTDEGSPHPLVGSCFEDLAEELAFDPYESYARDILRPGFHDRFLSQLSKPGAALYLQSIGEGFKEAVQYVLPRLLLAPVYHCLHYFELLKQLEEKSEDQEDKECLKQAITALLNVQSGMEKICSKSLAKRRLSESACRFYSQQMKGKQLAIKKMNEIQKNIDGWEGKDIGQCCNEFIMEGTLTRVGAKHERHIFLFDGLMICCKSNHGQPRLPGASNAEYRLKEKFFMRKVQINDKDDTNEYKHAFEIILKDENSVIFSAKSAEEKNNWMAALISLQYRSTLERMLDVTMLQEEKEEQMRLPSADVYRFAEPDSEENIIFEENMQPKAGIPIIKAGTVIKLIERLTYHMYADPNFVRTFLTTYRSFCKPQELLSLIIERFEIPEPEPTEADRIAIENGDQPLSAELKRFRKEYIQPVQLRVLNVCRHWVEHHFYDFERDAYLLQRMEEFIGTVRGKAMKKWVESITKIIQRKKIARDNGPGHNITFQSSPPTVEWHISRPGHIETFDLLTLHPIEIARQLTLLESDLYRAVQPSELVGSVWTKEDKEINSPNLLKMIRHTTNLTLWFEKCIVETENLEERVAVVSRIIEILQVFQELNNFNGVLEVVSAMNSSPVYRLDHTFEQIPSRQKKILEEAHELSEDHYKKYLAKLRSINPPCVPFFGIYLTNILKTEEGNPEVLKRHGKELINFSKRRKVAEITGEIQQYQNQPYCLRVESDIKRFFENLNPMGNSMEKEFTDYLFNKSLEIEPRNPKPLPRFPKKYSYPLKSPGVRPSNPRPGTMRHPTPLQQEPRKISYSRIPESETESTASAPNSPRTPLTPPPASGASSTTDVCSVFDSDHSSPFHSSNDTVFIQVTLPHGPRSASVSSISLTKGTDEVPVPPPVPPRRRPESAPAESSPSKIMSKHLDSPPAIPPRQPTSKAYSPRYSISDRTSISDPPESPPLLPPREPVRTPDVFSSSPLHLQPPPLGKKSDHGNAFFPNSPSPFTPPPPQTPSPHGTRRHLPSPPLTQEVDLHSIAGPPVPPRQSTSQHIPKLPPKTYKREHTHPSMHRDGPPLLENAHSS
Kind of test: KRAS G12C::SOS1 protein-protein interaction (PPI) inhibition assay (HTRF binding kit).
Regarding `C[C@@H](NC(=O)c1ccc(=O)n(-c2ccccc2F)n1)c1cccc(C(F)(F)F)c1F` [Example 259, 1-(2-fluorophenyl)-N-[(1R)-1-[2-fluoro-3-(trifluoromethyl)phenyl]ethyl]-6-oxo-pyridazine-3-carboxamide], the IC50 was under 1 µM.

Turning to `C[C@@H](NC(=O)c1ccc(=O)n(-c2ccccc2F)n1)c1cccc(C#N)c1F` [Example 260, N-[(1R)-1-(3-cyano-2-fluoro-phenyl)ethyl]-1-(2-fluorophenyl)-6-oxo-pyridazine-3-carboxamide], the IC50 is under 1 µM.

`C[C@@H](NC(=O)c1ccc(=O)n(-c2ccccc2F)n1)c1cccc(F)c1Cl` [Example 261, N-[(1R)-1-(2-chloro-3-fluoro-phenyl)ethyl]-1-(2-fluorophenyl)-6-oxo-pyridazine-3-carboxamide] showed an IC50 of over 10 µM.

As to `C[C@H](NC(=O)c1ccc(=O)n(-c2ccccc2F)n1)c1cccc(F)c1Cl` [Example 262, N-[(1S)-1-(2-chloro-3-fluorophenyl)ethyl]-1-(2-fluorophenyl)-6-oxo-pyridazine-3-carboxamide], the IC50 lay within 1 to 10 µM.

For `C[C@@H](NC(=O)c1ccc(=O)n(-c2ccccc2F)c1)c1cc(N)cc(C(F)F)c1` [Example 263, N-[(1R)-1-[3-amino-5-(difluoromethyl)phenyl]ethyl]-1-(2-fluorophenyl)-6-oxo-pyridine-3-carboxamide], the IC50 was under 1 µM.

Regarding `C[C@@H](NC(=O)C1=NN(c2ccccc2)C(=O)CC1)c1cc(N)cc(C(F)(F)F)c1` [Example 264, N-[(1R)-1-[3-amino-5-(trifluoromethyl)phenyl]ethyl]-6-oxo-1-phenyl-4,5-dihydropyridazine-3-carboxamide], the 50% inhibitory concentration (IC50) is under 1 µM.

`CNCc1cc2c(cc1-c1ccc([C@@H](C)NC(=O)c3ccc(=O)n(-c4ccccc4F)n3)s1)CC2` [Example 266, 1-(2-fluorophenyl)-N-[(1R)-1-[5-[4-(methylaminomethyl)-3-bicyclo [4.2.0]octa-1,3,5-trienyl]-2-thienyl]ethyl]-6-oxo-pyridazine-3-carboxamide]: the IC50 was under 1 µM.

`CNCc1ccccc1-c1csc([C@@H](C)NC(=O)c2ccc(=O)n(-c3ccccc3F)n2)c1` [Example 267, 1-(2-fluorophenyl)-N-[(1R)-1-[4-[2-(methylaminomethyl)phenyl]-2-thienyl]ethyl]-6-oxo-pyridazine-3-carboxamide] registered an IC50 of under 1 µM.

In the case of `CNCc1ccccc1-c1ccc([C@@H](C)NC(=O)c2nn(-c3ccccc3F)c(=O)c3cc[nH]c23)s1` [Example 268, 5-(2-fluorophenyl)-N-[(1R)-1-[5-[2-(methylaminomethyl)phenyl]-2-thienyl]ethyl]-4-oxo-1H-pyrrolo[2,3-d]pyridazine-7-carboxamide], the IC50 was under 1 µM.

Regarding `CNCc1ccccc1-c1ccc([C@@H](C)NC(=O)c2nn(-c3ccccc3F)c(=O)c3ccsc23)s1` [Example 269, 5-(2-fluorophenyl)-N-[(1R)-1-[5-[2-(methylaminomethyl)phenyl]-2-thienyl]ethyl]-4-oxo-thieno[2,3-d]pyridazine-7-carboxamide], the IC50 is under 1 µM.

On to `CNCc1ccc(Cl)cc1-c1ccc([C@@H](C)NC(=O)c2ccc(=O)n(-c3cccnc3F)n2)s1` [Example 270, N-[(1R)-1-[5-[5-chloro-2-(methylaminomethyl)phenyl]-2-thienyl]ethyl]-1-(2-fluoro-3-pyridyl)-6-oxo-pyridazine-3-carboxamide], for which the IC50 is under 1 µM.

The compound `CNCc1ccc(Cl)cc1-c1ccc([C@@H](C)NC(=O)c2ccc(=O)n(-c3cccnc3NC)n2)s1` [Example 271, N-[(1R)-1-[5-[5-chloro-2-(methylaminomethyl)phenyl]-2-thienyl]ethyl]-1-[2-(methylamino)-3-pyridyl]-6-oxo-pyridazine-3-carboxamide] came in with an IC50 of under 1 µM.

The compound `CNCc1ccc(C)cc1-c1ccc([C@@H](C)NC(=O)c2ccc(=O)n(-c3cccnc3F)c2)s1` [Example 272, 1-(2-fluoro-3-pyridyl)-N-[(1R)-1-[5-[5-methyl-2-(methylaminomethyl)phenyl]-2-thienyl]ethyl]-6-oxo-pyridine-3-carboxamide] had an IC50 of under 1 µM.

`CNCc1cc2c(cc1-c1ccc([C@@H](C)NC(=O)c3ccc(=O)n(-c4ccccc4F)c3)s1)CCC2` [Example 273, 1-(2-fluorophenyl)-N-[(1R)-1-[5-[6-(methylaminomethyl)indan-5-yl]-2-thienyl]ethyl]-6-oxo-pyridine-3-carboxamide] displayed an IC50 of under 1 µM.

Compound `CNCc1cc2c(cc1-c1ccc([C@@H](C)NC(=O)c3ccc(=O)n(-c4ccccc4F)n3)s1)CCC2` [Example 274, 1-(2-fluorophenyl)-N-[(1R)-1-[5-[6-(methylaminomethyl)indan-5-yl]-2-thienyl]ethyl]-6-oxo-pyridazine-3-carboxamide] came in with an IC50 of under 1 µM.

Turning to `CNCc1ccccc1-c1ccc([C@@H](C)NC(=O)c2nn(-c3cnn(C)c3)c(=O)c3cc[nH]c23)s1` [Example 275, N-[(1R)-1-[5-[2-(methylaminomethyl)phenyl]-2-thienyl]ethyl]-5-(1-methylpyrazol-4-yl)-4-oxo-1H-pyrrolo[2,3-d]pyridazine-7-carboxamide], the IC50 is under 1 µM.

`CNCc1cc2c(cc1-c1ccc([C@@H](C)NC(=O)c3ccc(=O)n(-c4ccccc4F)c3)s1)CC2` [Example 276, 1-(2-fluorophenyl)-N-[(1R)-1-[5-[4-(methylaminomethyl)-3-bicyclo[4.2.0]octa-1,3,5-trienyl]-2-thienyl]ethyl]-6-oxo-pyridine-3-carboxamide] came in with an IC50 of under 1 µM.

As for `CNCc1ccc(Cl)cc1-c1ccc([C@@H](C)NC(=O)c2ccc(=O)n(-c3cccnc3F)c2)s1` [Example 277, N-[(1R)-1-[5-[5-chloro-2-(methylaminomethyl)phenyl]-2-thienyl]ethyl]-1-(2-fluoro-3-pyridyl)-6-oxo-pyridine-3-carboxamide], the IC50 was under 1 µM.

Consider `CNCc1ccccc1-c1ccc([C@@H](C)NC(=O)c2ccc(=O)n(-c3cnn(C)c3)n2)s1` [Example 278, N-[(1R)-1-[5-[2-(methylaminomethyl)phenyl]-2-thienyl]ethyl]-1-(1-methylpyrazol-4-yl)-6-oxo-pyridazine-3-carboxamide], for which the IC50 was under 1 µM.

For `CNCc1cc(F)ccc1-c1ccc([C@@H](C)NC(=O)c2ccc(=O)n(-c3ccccc3F)n2)s1` [Example 279, N-[(1R)-1-[5-[4-fluoro-2-(methylaminomethyl)phenyl]-2-thienyl]ethyl]-1-(2-fluorophenyl)-6-oxo-pyridazine-3-carboxamide], the half-maximal inhibitory concentration (IC50) was under 1 µM.

In the case of `CNCc1cc(F)ccc1-c1ccc([C@@H](C)NC(=O)c2ccc(=O)n(-c3ccccc3F)c2)s1` [Example 280, N-[(1R)-1-[5-[4-fluoro-2-(methylaminomethyl)phenyl]-2-thienyl]ethyl]-1-(2-fluorophenyl)-6-oxo-pyridine-3-carboxamide], the IC50 is under 1 µM.

Consider `CNCc1cc(Cl)ccc1-c1ccc([C@@H](C)NC(=O)c2ccc(=O)n(-c3ccccc3F)n2)s1` [Example 281, N-[(1R)-1-[5-[4-chloro-2-(methylaminomethyl)phenyl]-2-thienyl]ethyl]-1-(2-fluorophenyl)-6-oxo-pyridazine-3-carboxamide], for which the IC50 was under 1 µM.

For `CNCc1cc(Cl)ccc1-c1ccc([C@@H](C)NC(=O)c2ccc(=O)n(-c3ccccc3F)c2)s1` [Example 282, N-[(1R)-1-[5-[4-chloro-2-(methylaminomethyl)phenyl]-2-thienyl]ethyl]-1-(2-fluorophenyl)-6-oxo-pyridine-3-carboxamide], the IC50 was under 1 µM.

Take `CNCc1ccc(Cl)cc1-c1ccc([C@@H](C)NC(=O)c2ccc(=O)n(-c3ccccc3F)c2)s1` [Example 283, N-[(1R)-1-[5-[5-chloro-2-(methylaminomethyl)phenyl]-2-thienyl]ethyl]-1-(2-fluorophenyl)-6-oxo-pyridine-3-carboxamide]: the IC50 was under 1 µM.

`CNCc1ccc(Cl)cc1-c1ccc([C@@H](C)NC(=O)c2ccc(=O)n(-c3cccnc3)n2)s1` [Example 285, N-[(1R)-1-[5-[5-chloro-2-(methylaminomethyl)phenyl]-2-thienyl]ethyl]-6-oxo-1-(3-pyridyl)pyridazine-3-carboxamide] had an IC50 of under 1 µM.
